Measured values taken from patent US7008945B1, “Amide derivatives” (AstraZeneca AB, priority 1999, dated 2006).

Tests used:
p38α = biological target: T1, p38α (Homo sapiens, UniProt Q16539); test: In vitro enzyme assay, p38α; type: biochemical; conditions: read-out: IC50 against p38α
T1 construct: c-myc (N); 6His (N); made in house; host or cells: E. coli (PET vectors)
Protocol: (§1) The ability of compounds of the invention to inhibit the enzyme p38 kinase was assessed. Activity of test compounds against each of the p38α and p38β isoforms of the enzyme was determined. […]
(§2) Test compounds were solubilised in DMSO and 10 μl of a 1:10 diluted sample in ‘Kinase Buffer’ was added to a well in a Microtiter plate. […] The precipitated protein was phosphorylated by p38 kinase and test compounds were assessed for their ability to inhibit this phosphorylation. The plates were filtered using a Canberra Packard Unifilter and washed with 2% TCA, dried overnight and counted on a Top Count scintillation counter.
(§3) Test compounds were tested initially at a single dose and active compounds were retested to allow IC50 values to be determined.

TNFα production = test: Human Whole Blood test (LPS-stimulated TNFα production); type: cell-based; conditions: inhibition of TNFα production in LPS-stimulated human whole blood
Protocol: The ability of the compounds of this invention to inhibit TNFα production was also assessed in a human whole blood assay. Human whole blood secretes TNFα when stimulated with LPS. This property of blood forms the basis of an assay which is used as a secondary test for compounds which profile as active in the PBMC test.
Heparinised (10 units/ml) human blood was obtained from volunteers. 160 μl whole blood were added to 96 well round-bottom plates (Corning 25850). Compounds were solubilised and serially diluted in RPMI 1640 medium (Gibco) supplemented with 50 units/ml penicillin, 50 μg/ml streptomycin and 2 mM glutamine, as detailed above. 20 μl of each test concentration was added to appropriate wells (triplicate cultures), 20 μl of RPMI 1640 medium supplemented with antibiotics and glutamine was added to control wells. Plates were incubated for 30 minutes at 37° C. (humidified incubator), prior to addition of 20 μl LPS (final concentration 10 μg/ml). RPMI 1640 medium was added to control wells. Six “LPS alone” and four “medium alone” controls were included on each plate. A known TNFα synthesis/secretion inhibitor was included in each test. Plates were incubated for 6 hours at 37° C. (humidified incubator). Plates were centrifuged (2000 rpm for 10 minutes) and 100 μl plasma removed and stored at −70° C. (Corning 25850 plates). TNFα levels were measured by ELISA (see WO92/10190 and Current Protocols in Molecular Biology, vol 2 by Frederick M. Ausbel et al., John Wiley and Sons Inc.). The paired antibodies that were used in the ELIZA were obtained from R&D Systems (catalogue nos. MAB610 anti-human TNFA coating antibody, BAF210 biotinylated anti-human TNFα detect antibody).

p38β = biological target: T2, p38β (Homo sapiens, UniProt Q15759); test: In vitro enzyme assay, p38β; type: biochemical; conditions: read-out: IC50 against p38β
T2 construct: Human recombinant p38α and p38β isoforms were produced as 5′ c-myc, 6His tagged proteins; fused on or other part: N-terminal c-myc and 6His tags
T2 sequence (Q15759 whole entry, the tested form may be a part, canonical isoform): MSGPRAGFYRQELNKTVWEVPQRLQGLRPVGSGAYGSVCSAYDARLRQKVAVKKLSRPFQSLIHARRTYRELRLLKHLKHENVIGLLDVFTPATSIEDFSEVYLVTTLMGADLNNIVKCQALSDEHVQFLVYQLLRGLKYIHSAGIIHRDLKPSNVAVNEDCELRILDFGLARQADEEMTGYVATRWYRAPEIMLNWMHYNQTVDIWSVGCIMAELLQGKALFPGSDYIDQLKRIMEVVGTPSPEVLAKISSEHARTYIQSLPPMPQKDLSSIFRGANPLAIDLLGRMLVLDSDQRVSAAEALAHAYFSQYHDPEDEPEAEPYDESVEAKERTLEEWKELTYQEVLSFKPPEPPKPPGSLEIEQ
Protocol: as §1, §2, §3

T1 sequence (Q16539 whole entry): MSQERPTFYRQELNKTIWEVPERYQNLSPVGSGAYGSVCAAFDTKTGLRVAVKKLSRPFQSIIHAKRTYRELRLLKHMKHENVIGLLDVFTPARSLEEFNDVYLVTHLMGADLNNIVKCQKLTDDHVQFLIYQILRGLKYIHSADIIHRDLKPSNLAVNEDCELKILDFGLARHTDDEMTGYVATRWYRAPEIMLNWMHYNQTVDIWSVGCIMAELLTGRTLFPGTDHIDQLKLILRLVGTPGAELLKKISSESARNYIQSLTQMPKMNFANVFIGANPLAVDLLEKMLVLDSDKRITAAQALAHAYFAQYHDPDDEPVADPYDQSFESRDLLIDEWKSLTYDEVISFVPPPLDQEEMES

| IC50 (p38α) | IC50 (TNFα production) | IC50 (p38β) | Structure (SMILES) |
| --- | --- | --- | --- |
| ~100 nM | ~7000 nM |  | Cc1ccc(NC(=O)c2ccnc(N3CCOCC3)c2)cc1-n1cnc2c(N(C)CCCN(C)C)cccc2c1=O [8-[-(3-dimethylaminopropyl)-N-methylamino]-3-[2-methyl-5-(2-morpholinopyrid-4-ylcarbonylamino)phenyl]-3,4-dihydroquinazolin-4-one] |
|  | ~5000 nM | ~50 nM | CN(C)CCCN(C)c1ccc2ncn(-c3cccc(NC(=O)c4ccnc(N5CCOCC5)c4)c3)c(=O)c2c1 [6-[N-(3-dimethylaminopropyl)-N-methylamino]-3-[5-(2-morpholinopyrid-4-ylcarbonylamino)phenyl]-3,4-dihydroquinazolin-4-one] |
| ~200 nM | ~2000 nM |  | Cc1ccc(NC(=O)c2ccnc(N3CCOCC3)c2)cc1-n1cnc2ccc(N(C)CCCN(C)C)cc2c1=O [6-[N-(3-dimethylaminopropyl)-N-methylamino]-3-[2-methyl-5-(2-morpholinopyrid-4-ylcarbonylamino)phenyl]-3,4-dihydroquinazolin-4-one] |
